Laboratory results taken from US9161944B2, “Method for preventing cancer metastasis” (INSERM (INSTITUT NATIONAL DE LA SANTE ET DE LA SANTE ET DE …, priority 2010, dated 2015).

Columns and labels:
SK1 = biological target: T1, SK1 (Homo sapiens, UniProt Q92952); assay: Whole-cell K+ currents in HEK293 cells expressing recombinant SK1; type: cell-based; settings: 10 μM, FIG. 9B
T1 construct: expressed in transfected cells; host or cells: HEK293
Protocol: (§1) FIG. 9. Selectivity effect of JPH1701 on SKCa subtype and on IKCa channels. FIG. 9A) Example of whole-cell K^+ currents recorded in HEK293 cells expressing recombinants SK1, SK2, SK3 and IKCa channels before and after application of 10 μM JPH1701 (upper graphs: SK1 and SK2 respectively, bottom graphs: SK3 and IKCa respectively). Currents were generated by ramp protocol from −100 mV to +60 mV in 500 ms from a constant holding of 0 mV and with a pCa 6. FIG. 9B) Histograms showing the effect of 10 μM JPH1701 on SKCa (SK1, SK2, SK3) and IKCa current amplitudes recorded at 0 mV. […] For each channel (SK1, SK2, SK3 and IKCa) the left column (pale grey) represents the control result and the right column (dark grey) represents the result after JPH1701 application.
(§2) The selectivity of JPH1701 toward the others members of the SKCa/IKCa channels was tested. […] The experimental protocol was similar to the one used in FIG. 8. JPH1701 was tested for membrane potential from +60 mV to −100 mV on 500 msec.

IKCa = biological target: T2, IKCa (Homo sapiens, UniProt O15554); assay: Whole-cell K+ currents in HEK293 cells expressing recombinant IKCa; type: cell-based; settings: 10 μM, FIG. 9B
T2 construct: expressed in transfected cells; host or cells: HEK293
Protocol: as §1, §2

MDA-MB-435s (SK3+) = assay: Cell migration / 2D motility assay (transwell inserts, wound healing); type: cell-based, human
Excerpt: Alternatively, the cell migration inhibitory activity of a compound of formula (I) may be assessed by performing a Wound Healing assay that is disclosed in the examples herein and for which the one skilled in the art may also refer to the article of Rodriguez et al. (2005, Methods Biol Mol, Vol. 294: 23-29). The wound-healing assay is simple, inexpensive, and one of the earliest developed methods to study directional cell migration in vitro. This method mimics cell migration during wound healing in vivo. The basic steps involve creating a “wound” in a cell monolayer, capturing the images at the beginning and at regular intervals during cell migration to close the wound, and comparing the images to quantify the migration rate of the cells. It is particularly suitable for studies on the effects of cell-matrix and cell-cell interactions on cell migration. Cells are seeded in culture dishes and grown until confluence in DMEM supplemented with 10% foetal calf serum. The monolayer is then scratched with a sterile yellow pipette tip. Then, migration of cells to the cleared area is inspected under a microscope. Pictures are taken directly at the time of scratching and after 24 h, so as to determine the ability of the tested cells to migrate.
Wound healing assay: Cells were seeded in culture dishes and grown until confluence in DMEM supplemented with 10% foetal calf serum. The monolayer was scratched with a sterile yellow pipette tip. The migration of cells to the cleared area was inspected under a microscope. Pictures were taken directly at the time of scratching and after 24 h.
At least three independent experiments were each performed in triplicate.

SK3/KCa2.3 channel = SK3/KCa2.3 channel (Homo sapiens, UniProt Q9UGI6); assay: Whole-cell patch clamp on HEK293 cells expressing SK3; type: cell-based; design: expressed in transfected cells; host or cells: HEK293, lentiviral transduction, clonal selection
Protocol: The percentages of inhibition represent the ratio (SK3 current amplitude and chord conductance (in the presence of 10 μM JPH1701)/SK3 current amplitude in control experiments). Black bars show current at 0 mV and grey bars indicate the chord conductance. […] Columns, mean, bars, SEM, (5 cells for racemic mix and 4 cells for + and − forms).
MDA-MB-435s and HEK293 cells were transduced with lentiviral vector at multiplicities of infection (MOI) of 1 to 3 in the presence of polybrene (4 μg/ml, Sigma).
Experiments were performed with cells seeded into 35-mm Petri dishes at 3000 cells per cm2. All experiments were performed using the conventional whole-cell recording configuration of the patch-clamp technique as previously described. PCa solution was 7 and 6.4 respectively for MDA-MB-435s and HEK293-SK3/KCa2.3 cells.
Briefly, experiments were conducted using Axopatch 200B patch-clamp amplifier (Axon Instrument) and data, digitized with 1322-A Digidata converter (Axon Instrument), were stored on a computer using Clampex of pClamp 9.2 software (Axon Instru-ment). The patch-clamp data was analyzed using both Clampfit 9.2 and Origin 7.0 software (Microcal Inc., Northampton, Mass., USA).
The pipette solution for the whole-cell recordings contained (in mM): K-glutamate 125, KCl 20, MgCl2 1, Mg-ATP 1, HEPES 10, and pH was adjusted to 7.2 with KOH and various concentrations of CaCl2 and EGTA were added to obtain calculated pCa=7 (0.37 mM CaCl2 and 10 mM EGTA) or pCa=6.4 (0.7 mM CaCl2 and 1 mM EGTA).
We next developed HEK cells expressing SK3/KCa2.3 channel in order to test directly analogues on SK3 activity measured using patch-clamp technique (FIG. 8). […] The JPH1701-induced inhibition of SK3 current was analysed at 0 mV and the entire time course of the experiment is depicted in FIG. 8A.
Current activity has been measured in HEK 293 LvSK3 and in MDA-MB-435s cells. The percentages represent the inhibition of current and of conductance by compounds on SK3 channel in HEK 293 cells.

PAF receptor = PAF receptor (Homo sapiens, UniProt P25105); assay: 3H-C16-PAF binding, membrane homogenates of CHO cells; design: expressed in transfected cells; host or cells: CHO cells (membrane homogenates); settings: 0.3 and 2 μM, FIG. 11A
Protocol: FIG. 11: Effects of JPH1701 on PAF receptor, PLC and PKCs activities. FIG. 11A) Histogram showing the percentage of control specific binding of 3H-C16-PAF to recombinant PAF receptor obtained from membrane homogenates of CHO cells by 0.3 and 2 μM edelfosine and by 0.3 and 2 μM JPH1701. FIG. 11B) Histogram showing the percentage of control agonist response (% effect i.e: increase of intracellular calcium concentration) of 0.3 and 2 μM edelfosine and JPH1701 on PAF receptor normalized to the response induced by 100 nM C16-PAF. […] FIG. 11C-D) Dose responses curves showing the effect of JPH1701 on PKCs (FIG. 11C, PKCs are: alpha, Beta 1, Beta 2, Gamma, Delta, Epsilon, Zeta, Eta, Theta, Iota) and PhosphoLipase C (PLC) activities (FIG. 11D).

T2 sequence (O15554 whole entry): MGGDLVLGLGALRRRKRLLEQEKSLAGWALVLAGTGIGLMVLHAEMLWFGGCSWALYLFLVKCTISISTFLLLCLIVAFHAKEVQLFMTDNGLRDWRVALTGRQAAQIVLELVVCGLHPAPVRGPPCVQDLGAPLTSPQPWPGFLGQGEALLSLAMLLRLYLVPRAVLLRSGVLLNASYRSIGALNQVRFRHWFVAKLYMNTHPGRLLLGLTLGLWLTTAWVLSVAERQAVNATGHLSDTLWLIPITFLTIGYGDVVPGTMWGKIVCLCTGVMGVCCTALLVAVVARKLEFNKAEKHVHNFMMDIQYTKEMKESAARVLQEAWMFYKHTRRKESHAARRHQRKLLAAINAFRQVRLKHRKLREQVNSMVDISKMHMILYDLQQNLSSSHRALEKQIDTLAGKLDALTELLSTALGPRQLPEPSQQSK
Sequence of PAF receptor (P25105 whole entry): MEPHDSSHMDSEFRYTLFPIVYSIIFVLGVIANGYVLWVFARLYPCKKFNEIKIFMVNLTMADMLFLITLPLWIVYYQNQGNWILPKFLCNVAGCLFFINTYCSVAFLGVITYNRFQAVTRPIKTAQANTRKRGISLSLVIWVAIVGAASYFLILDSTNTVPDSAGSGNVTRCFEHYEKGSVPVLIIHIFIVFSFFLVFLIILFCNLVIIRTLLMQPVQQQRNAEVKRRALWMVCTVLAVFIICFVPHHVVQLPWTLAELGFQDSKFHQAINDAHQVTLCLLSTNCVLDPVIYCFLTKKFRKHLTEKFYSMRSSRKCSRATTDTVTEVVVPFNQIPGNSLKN
T1 sequence (Q92952 whole entry): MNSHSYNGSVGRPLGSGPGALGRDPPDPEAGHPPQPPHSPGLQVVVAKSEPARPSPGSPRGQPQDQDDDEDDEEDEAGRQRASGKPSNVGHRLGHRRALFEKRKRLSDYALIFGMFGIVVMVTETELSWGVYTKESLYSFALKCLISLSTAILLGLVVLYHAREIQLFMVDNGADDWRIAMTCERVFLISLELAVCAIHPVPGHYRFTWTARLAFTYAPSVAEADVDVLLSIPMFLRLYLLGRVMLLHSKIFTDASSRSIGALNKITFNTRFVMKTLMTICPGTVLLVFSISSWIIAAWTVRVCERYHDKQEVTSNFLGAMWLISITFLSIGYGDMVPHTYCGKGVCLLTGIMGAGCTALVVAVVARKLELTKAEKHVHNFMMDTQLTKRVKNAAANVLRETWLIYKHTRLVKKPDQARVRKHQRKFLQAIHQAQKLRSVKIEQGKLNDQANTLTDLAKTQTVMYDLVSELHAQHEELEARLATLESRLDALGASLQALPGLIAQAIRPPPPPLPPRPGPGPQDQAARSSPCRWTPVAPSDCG

hexadecyloxy-2-O-methyl-sn-glycerol-lactose [JPH1701]
Effect on SK1 current amplitude at 0 mV (SK1): significantly reduced
Effect on IKCa currents (IKCa): inactive
Effect on motility of cells with shRNA random (SK3+) compared with wild type (MDA-MB-435s (SK3+); MDA-MB-435s shRD, FIG. 6E): same inhibition effect
Concentration from which cell migration is inhibited (MDA-MB-435s (SK3+); MDA-MB-435s wild type, FIG. 6A): ≥ 10 nM
Concentration of maximal effect on cell migration (MDA-MB-435s (SK3+); MDA-MB-435s wild type, FIG. 6A): around 1 μM
Cell Migration inhibition of MDA-MB-435s (SK3+), Inhibitory effect (MDA-MB-435s (SK3+); Table 1, concentration 300 nM): 50%
Migration (% of inhibition) (MDA-MB-435s (SK3+); Table 2, concentration 300 nM): 50%
Effect on cell migration (MDA-MB-435s (SK3+); summary of table 2): even more effective
Effect on SK3 current amplitude at 0 mV (SK3/KCa2.3 channel; 10 μM, FIG. 9B, ranking SK3>SK1): significantly reduced
Reduction of the amplitude of the SK3 current at 0 mV (SK3/KCa2.3 channel; 10 μM, after 120 sec): about 70%
Time needed to reduce 50% of the amplitude of the current (SK3/KCa2.3 channel; 0.3, 1 and 10 μM, whatever the concentration): approximately 40 sec
Conductance decreasing (SK3/KCa2.3 channel; HEK 293 LvSK3 cells): 66.1 ± 1.5%
Inhibition of I at 0 mV (SK3/KCa2.3 channel; HEK 293 LvSK3 cells, 10 μM stated for JPH1701): 70.1 ± 1.4%
Interaction with C16-PAF binding site of PAF receptor (PAF receptor): unable to interact
